The text below walks through data of patent publication US20010041801A1, “Water soluble fullerenes with antiviral activity” (The Regents of the University of California, priority 1994, published 2001).

The subject of one data set is HIV-1 LAI. The experiment in a line: Antiviral activity in acutely infected human PBMC, virus RT level. Type of data set: cell-based. To be noted: acutely infected, virus RT level on day 6, read-out: Antiviral Activity (EC50) in PBMC infected with HIVLAI. How it is done: (§1) Compound 2c was evaluated for antiviral activity in cells acutely and chronically infected with human immunodeficiency virus (HIV). Reverse transcriptase (RT) levels associated with virus were determined with virus concentrated from cell culture supernatants by high-speed centrifugation to reduce the chances of drug carryover in the enzyme assay using the method described in R. F. Schinazi, et al., Antimicrob. Agents Chemother., 36:2423-2431, 1992.

In the next data set the test system is HIV-2ROD. The data set is described as above. Type of data set: cell-based. The conditions noted are these: acutely infected, virus RT level on day 6, read-out: Antiviral Activity (EC50) in PBMC infected with HIV-2ROD. As for the experimental part:
as §1

A further data set has as its system PBMC. The experiment in a line: Cytotoxicity in uninfected PBMC. Type of data set: cell-based, human. The conditions noted are these: thymidine uptake day 2 and cell counts day 6.
In a further data set the test system is Vero cells. The experiment in a line: Cytotoxicity in Vero cells. Type of data set: cell-based. To be noted: day 3.
A further data set concerns CEM cells. The experiment in a line: Cytotoxicity in CEM cells. The data set is classed as cell-based. To be noted: cell counts on day 6.
The target of another data set is HIV-1 RT (Human immunodeficiency virus type 1 group M subtype B, UniProt P04585). The experiment in a line: Inhibition of recombinant p66/51 HIV-1 RT, poly(rA)n.oligo(T)12-18 template-primer. The data set is classed as biochemical. To be noted: cell-free; AZT-5′-triphosphate used for AZT; read-out: IC50 Polymerases: HIV-1 RT. How it is done: The compound was also evaluated for its inhibitory effect on recombinant p66/51 HIV-1 RT by using poly(rA)n.oligo(T)12-18 as the template-primer as described in Schinazi, et al. (1992, supra). Compound 2c was active against this enzyme, with a median inhibitory concentration (1C50) of 4.6 μM. This value was of the same order of magnitude as that noted for the antiviral assays (TABLE 3). […] AZT-5′ triphosphate and phosphonoformate (PFA), used as positive controls, were effective and selective against HIV-1 RT.

The target in a further data set is DNA polymerase α (Homo sapiens, UniProt P09884). The experiment in a line: Inhibition of cellular DNA polymerase α, cell-free. The data set is classed as biochemical. The conditions noted are these: AZT-5′-triphosphate used for AZT, read-out: IC50 Polymerases: DNA Polymerase α.
The nature of the next data set: Solubility in water. The conditions noted are these: physiologic pH, generally between pH 6 and 8.
The test system of a further data set is HIV-1III. The experiment in a line: Antiviral activity in chronically infected H9 cells, virus RT level. The data set is classed as cell-based. How it is done:
as §1

The nature of data set [1]: Cytotoxicity in uninfected PBMC. The data set is classed as cell-based, human. The conditions noted are these: human, uninfected PBMC; thymidine uptake day 2 and cell counts day 6.
A short description of the next data set: Cytotoxicity in H9 cells. The data set is classed as cell-based, human. The conditions noted are these: human, H9 cells; cell counts on day 6.
A short description of data set [2]: Cytotoxicity in Vero cells. The conditions noted are these: African green monkey, Vero cells; day 3. The data set is classed as cell-based.
Data set [3] can be described thus: Cytotoxicity in CEM cells. Type of data set: cell-based. To be noted: human, CEM cells; cell counts on day 6.
The next data set relates to HIV-1 HI 12.2. The experiment in a line: Susceptibility of pretherapy AZT-susceptible isolate in acutely infected PBMC. The data set is classed as cell-based. To be noted: Human immunodeficiency virus 1, PBMC, read-out: EC50 against pretherapy isolate. The source says:
(§2) The availability of AZT-resistant and -susceptible viruses allowed us to evaluate the compounds of this invention for their susceptibilities to these viruses in acutely infected PBMC in two experiments. […] In the same assay, the EC50 for TIBO [(+)-(5s)-4,5,6,7-tetrahydro-5methyl-6-(3-methyl-2-butenyl)imidazo(4,5,1-jk)(1,4)benzodiazepin-2(1 H)-thione] R82150 increased >500-fold (data not shown).

The next data set concerns HIV-1G910-6. The experiment in a line: microbe, parasite or virus in culture. Type of data set: cell-based.
Excerpt: as §2

Data set [4] has as its system nevirapine (BI-RG587)-resistant HIV-1. The experiment in a line: Susceptibility of nevirapine-resistant HIV-1. Type of data set: cell-based.
The target of another data set is T1, HIV-1 protease (HIVP) (Human immunodeficiency virus type 1 group M subtype B, UniProt P04585).
T1 construct: HIV produces a small, dimeric aspartyl protease which specifically cleaves the polyprotein precursors
The experiment in a line: Inhibition of HIV-1 protease, HPLC assay with kinetic analysis. The data set is classed as biochemical. To be noted: 50 mM NaAc pH 5.5, 1.0 M NaCl; 5 min preincubation; fit to competitive inhibition; read-out: Ki. As for the experimental part: The ability of compound 2c to inhibit the HIVP was assayed with an HPLC method as described in R. L DesJarlais, et al., Proc. Natl. Acad. Sci U.S.A., 87:6644-6648, 1990. […] Assays were performed in buffer containing 50 mM NaAc pH 5.5, 1.0 M NaCl, 5% glycerol, 1% DMSO, and 2 mM EDTA. Inhibitor was preincubated with ≈0.05 μg of enzyme for 5 minutes at which time the reaction was initiated by addition of substrate. The reaction was quenched at <15% product formation by the addition of 15 μL of 10% TFA. The cleavage products of the substrate peptide H-Lys-Ala-Arg-Val-Tyr-p-nitro-Phe-Glu-Ala-Ile-NH2 (made by Bachem, Philadelphia, Pa.) were assayed by HPLC using a 10-40% (acetonitrile, 0.1% TFA): (water, 0.1% TFA) gradient over 30 minutes at 1 mL/minute. Product was quantitated by integration of peak areas followed by comparison to product standard curves.
Determination of kinetic constants was done with the program KinetAsyst (IntelliKinetics) by fitting of the data to the equation […]] which describes competitive inhibition.

Read-outs that look alike come from different tables or passages of the source. Bounds are passed on as bounds.

DNA polymerase α, sequence (P09884 whole entry): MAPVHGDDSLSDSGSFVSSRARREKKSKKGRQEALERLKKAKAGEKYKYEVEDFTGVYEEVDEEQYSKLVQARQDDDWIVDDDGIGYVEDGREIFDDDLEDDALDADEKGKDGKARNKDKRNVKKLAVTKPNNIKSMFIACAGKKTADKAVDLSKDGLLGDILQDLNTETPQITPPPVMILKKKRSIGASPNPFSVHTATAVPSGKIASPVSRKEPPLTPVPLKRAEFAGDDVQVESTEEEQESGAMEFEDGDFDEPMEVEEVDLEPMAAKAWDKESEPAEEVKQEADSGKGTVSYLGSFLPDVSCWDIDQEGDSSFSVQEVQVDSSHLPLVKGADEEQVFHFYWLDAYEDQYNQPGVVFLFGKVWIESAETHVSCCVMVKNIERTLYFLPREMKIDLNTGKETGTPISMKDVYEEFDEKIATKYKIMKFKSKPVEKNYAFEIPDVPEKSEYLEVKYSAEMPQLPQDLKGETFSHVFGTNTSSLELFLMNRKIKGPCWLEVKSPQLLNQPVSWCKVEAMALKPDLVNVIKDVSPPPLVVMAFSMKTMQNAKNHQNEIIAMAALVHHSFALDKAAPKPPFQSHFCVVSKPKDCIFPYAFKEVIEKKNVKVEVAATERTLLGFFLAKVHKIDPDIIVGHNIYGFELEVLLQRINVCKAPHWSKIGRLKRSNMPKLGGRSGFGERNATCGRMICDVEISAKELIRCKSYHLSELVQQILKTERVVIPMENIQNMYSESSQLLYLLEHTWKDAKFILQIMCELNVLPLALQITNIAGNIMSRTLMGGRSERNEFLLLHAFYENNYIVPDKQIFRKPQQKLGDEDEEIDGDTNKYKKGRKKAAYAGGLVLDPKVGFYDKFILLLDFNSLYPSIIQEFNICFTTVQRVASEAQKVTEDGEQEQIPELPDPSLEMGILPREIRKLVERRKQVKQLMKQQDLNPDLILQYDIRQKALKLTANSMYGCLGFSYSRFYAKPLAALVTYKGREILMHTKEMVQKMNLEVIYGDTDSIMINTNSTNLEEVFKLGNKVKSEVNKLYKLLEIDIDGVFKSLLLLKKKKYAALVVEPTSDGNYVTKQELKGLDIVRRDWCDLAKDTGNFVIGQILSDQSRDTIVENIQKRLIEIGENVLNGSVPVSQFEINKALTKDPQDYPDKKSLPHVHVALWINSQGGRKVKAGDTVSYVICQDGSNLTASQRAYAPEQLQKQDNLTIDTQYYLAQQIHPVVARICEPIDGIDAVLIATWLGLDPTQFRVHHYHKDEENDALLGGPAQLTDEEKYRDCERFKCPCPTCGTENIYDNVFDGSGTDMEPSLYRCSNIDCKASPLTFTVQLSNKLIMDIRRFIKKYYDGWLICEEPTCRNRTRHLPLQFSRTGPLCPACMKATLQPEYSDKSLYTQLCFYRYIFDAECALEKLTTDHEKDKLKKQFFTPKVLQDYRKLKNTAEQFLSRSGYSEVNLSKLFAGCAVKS
DNA polymerase α, sequence (Q14181 whole entry partner): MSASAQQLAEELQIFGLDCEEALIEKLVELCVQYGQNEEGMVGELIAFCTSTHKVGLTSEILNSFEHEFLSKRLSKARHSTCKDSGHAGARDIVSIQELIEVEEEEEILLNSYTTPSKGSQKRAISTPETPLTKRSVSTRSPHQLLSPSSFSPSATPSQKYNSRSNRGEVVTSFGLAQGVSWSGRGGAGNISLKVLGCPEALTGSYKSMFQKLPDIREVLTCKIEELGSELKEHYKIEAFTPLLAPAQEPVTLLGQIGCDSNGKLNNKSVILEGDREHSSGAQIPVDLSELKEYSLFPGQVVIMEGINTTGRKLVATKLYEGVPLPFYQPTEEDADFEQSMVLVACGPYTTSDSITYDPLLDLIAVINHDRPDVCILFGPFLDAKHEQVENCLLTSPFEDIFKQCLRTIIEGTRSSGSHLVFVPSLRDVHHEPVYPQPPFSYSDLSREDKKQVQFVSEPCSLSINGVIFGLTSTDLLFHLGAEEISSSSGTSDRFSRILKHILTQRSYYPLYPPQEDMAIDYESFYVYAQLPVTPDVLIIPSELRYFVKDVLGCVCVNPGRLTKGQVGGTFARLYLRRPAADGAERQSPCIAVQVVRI
DNA polymerase α, sequence (P49642 whole entry partner): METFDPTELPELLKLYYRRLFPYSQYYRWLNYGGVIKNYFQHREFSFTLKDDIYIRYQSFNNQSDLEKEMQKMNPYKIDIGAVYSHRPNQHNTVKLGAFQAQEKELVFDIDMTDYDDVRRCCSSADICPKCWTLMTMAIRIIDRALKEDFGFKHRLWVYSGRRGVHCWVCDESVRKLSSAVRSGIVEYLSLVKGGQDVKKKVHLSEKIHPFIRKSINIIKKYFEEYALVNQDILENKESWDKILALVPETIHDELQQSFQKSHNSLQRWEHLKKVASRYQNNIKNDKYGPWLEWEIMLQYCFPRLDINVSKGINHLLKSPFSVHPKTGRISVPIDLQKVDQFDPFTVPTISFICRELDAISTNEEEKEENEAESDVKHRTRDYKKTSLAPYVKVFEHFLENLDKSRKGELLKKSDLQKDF
DNA polymerase α, sequence (P49643 whole entry partner): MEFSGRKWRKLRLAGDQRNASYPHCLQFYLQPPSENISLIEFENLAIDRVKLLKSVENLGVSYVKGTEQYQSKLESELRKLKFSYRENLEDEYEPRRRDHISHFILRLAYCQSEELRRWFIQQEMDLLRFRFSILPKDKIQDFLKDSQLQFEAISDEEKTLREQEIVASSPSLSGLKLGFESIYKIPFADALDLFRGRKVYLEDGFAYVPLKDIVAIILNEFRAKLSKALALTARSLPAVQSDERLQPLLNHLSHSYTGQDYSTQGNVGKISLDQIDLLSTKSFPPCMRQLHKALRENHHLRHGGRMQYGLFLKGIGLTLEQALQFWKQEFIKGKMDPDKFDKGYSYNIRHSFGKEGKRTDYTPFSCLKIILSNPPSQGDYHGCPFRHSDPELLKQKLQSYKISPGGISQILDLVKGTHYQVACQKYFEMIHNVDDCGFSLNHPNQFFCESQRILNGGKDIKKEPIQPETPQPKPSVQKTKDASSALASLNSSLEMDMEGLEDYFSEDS

As a reminder, the IC50 is the concentration needed to halve the response being measured. As for `O=C(O)P(=O)(O)O` [PFA, phosphonoformate, reference compound], the figures for the EC50 in the data set on HIV-1 LAI and with HIV-2ROD were 430 nM and 440 nM, respectively. The IC50 is above 640000 nM in the data set with PBMC; above 100000 nM in the data set with Vero cells; above 100000 nM with CEM cells; 320 nM at HIV-1 RT; above 100000 nM on DNA polymerase α.
Consider “4,4′-Bis(2-aminoethyl)diphenyl C61 [hydrochloride salt of compound 2b]”, for which the “water solubility” value in the data set “Solubility in water” was “not to be soluble”.
Turning to `Cc1cn([C@H]2C[C@H](N=[N+]=[N-])[C@@H](CO)O2)c(=O)[nH]c1=O` [AZT, 3′-Azido-3′-deoxythymidine, reference compound], the EC50 is 4 nM in the data set on HIV-1 LAI (Human immunodeficiency virus 1, PBMC, 144 h); 3 nM in the data set on HIV-2ROD (Human immunodeficiency virus 2, PBMC, 144 h); above 100000 nM in the data set on HIV-1III (Human immunodeficiency virus 1, H9, 144 h, chronically infected, virus RT level after 6 days of treatment, read-out: Antiviral Activity (EC50) in H9 cells infected with HIV-1III); below 1 nM with HIV-1 HI 12.2; 180 nM in the data set with HIV-1G910-6 (Human immunodeficiency virus 1, PBMC, read-out: EC50 against AZT-resistant HIV-1, acutely infected PBMC / lymphocytes). In the data set with HIV-1III, the “effect in chronically infected H9 cells” value is reported as “no effect”. For the same compound, the IC50 is above 100000 nM in data set [1], 40 nM on HIV-1 RT and above 100000 nM at DNA polymerase α. In addition, the values for the IC50 at 6 days (in “Cytotoxicity in H9 cells”; in data set [3]) were 60000 nM and 13000 nM, respectively. In addition, half-maximal inhibition in [2] (IC50 at 3 days) was put at 23000 nM. Further, the “increase of EC50, AZT-resistant vs pretherapy virus” value with HIV-1G910-6 (virus pair HIV-1 HI 12.2 / HIV-1G910-6) is reported as “more than 180 fold”.
Turning to `CC(C)=CCN1Cc2cccc3[nH]c(=S)n(c23)C[C@@H]1C` [TIBO R82150, (+)-(5s)-4,5,6,7-tetrahydro-5methyl-6-(3-methyl-2-butenyl)imidazo(4,5,1-jk)(1,4)benzodiazepin-2(1 H)-thione, reference compound], the “increase in resistance, nevirapine-resistant vs -susceptible HIV-1” value in [4] is recorded as above 500 fold.
Broadly, the Ki is the equilibrium dissociation constant of an inhibitor or competing ligand from its target. In the case of `NCCc1ccc(C2(c3ccc(CCN)cc3)C34c5c6c7c8c9c%10c(c%11c%12c3c3c5c5c%13c6c6c7c7c9c9c%14c%10c%10c%11c%11c%12c%12c3c3c5c5c%13c%13c6c6c7c9c7c9c%14c%10c%10c%11c%11c%12c3c3c5c5c%13c6c7c6c9c%10c%11c3c56)C824)cc1` [Compound 2b, 4,4′-Bis(2-aminoethyl)diphenyl C61], the Ki on HIV-1 protease (HIVP) is around 2000 nM.
